This note sets out measurements from PubChem BioAssay AID1259411 (Chemical Carcinogenesis Research Information System (CCRIS), 2018).

Calls of active or inactive are those of the source. The rule behind the calls is not given here.

This data set deals with rodent carcinogenicity bioassays, tumor incidence. Briefly: CCRIS carcinogenicity studies. Summed up: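 Archive of carcinogenicity, mutagenicity, tumor promotion and tumor inhibition results drawn from journals, NCI reports and other sources, expert-reviewed; covers 1985-2011 and is no longer updated.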

Regarding `CCN(CC)CCCNC(=O)Cn1ncc(-c2ccccc2)c1-c1ccccc1`, the carcinogen call is, setting by setting: (Species: RAT, Strain/Sex: SPRAGUE-DAWLEY/FEMALE, Route: GAVAGE, Dose: 0, 20, 80, 160 MG/KG 1/D FOR 1 YR (STUDY DURATION: 1 YR), Dose: 0, 20, 80, 160 MG/KG 1/D FOR 1 YR (STUDY DURATION: 1 YR)) “inactive; negative”; (Species: RAT, Strain/Sex: SPRAGUE-DAWLEY/MALE, Route: GAVAGE, Dose: 0, 20, 80, 160 MG/KG 1/D FOR 1 YR (STUDY DURATION: 1 YR), Dose: 0, 20, 80, 160 MG/KG 1/D FOR 1 YR (STUDY DURATION: 1 YR)) “inactive; negative”.
In the case of `c1ccncc1`, the carcinogen call is, setting by setting: (Species: MOUSE, Strain/Sex: B6C3F1/FEMALE, Route: ORAL, Dose: 0, 125, 250, 500 PPM IN DRINKING WATER FOR 105 WK (STUDY DURATION: 105 WK), Dose: 0, 125, 250, 500 PPM IN DRINKING WATER FOR 105 WK (STUDY DURATION: 105 WK), Tumor Site: Type of Lesion: LIVER: HEPATOCELLULAR ADENOMA, HEPATOCELLULAR CARCINOMA, OR HEPATOBLASTOMA) “active; positive”; (Species: MOUSE, Strain/Sex: B6C3F1/MALE, Route: ORAL, Dose: 0, 250, 500, 1000 PPM IN DRINKING WATER FOR 104 WK (STUDY DURATION: 104 WK), Dose: 0, 250, 500, 1000 PPM IN DRINKING WATER FOR 104 WK (STUDY DURATION: 104 WK), Tumor Site: Type of Lesion: LIVER: HEPATOCELLULAR ADENOMA, HEPATOCELLULAR CARCINOMA, OR HEPATOBLASTOMA) “active; positive”; (Species: RAT, Strain/Sex: F344/FEMALE, Route: ORAL, Dose: 0, 100, 200, 400 PPM IN DRINKING WATER FOR 105 WK (STUDY DURATION: 105 WK), Dose: 0, 100, 200, 400 PPM IN DRINKING WATER FOR 105 WK (STUDY DURATION: 105 WK), Tumor Site: Type of Lesion: MULTIPLE ORGANS: MONONUCLEAR CELL LEUKEMIA) “equivocal”; (Species: RAT, Strain/Sex: F344/MALE, Route: ORAL, Dose: 0, 100, 200, 400 PPM IN DRINKING WATER FOR 104 WK (STUDY DURATION: 104 WK), Dose: 0, 100, 200, 400 PPM IN DRINKING WATER FOR 104 WK (STUDY DURATION: 104 WK), Tumor Site: Type of Lesion: KIDNEY: RENAL TUBULE ADENOMA, RENAL TUBULE ADENOMA OR CARCINOMA) “active; positive”; (Species: RAT, Strain/Sex: WISTAR/MALE, Route: ORAL, Dose: 0, 100, 200, 400 PPM IN DRINKING WATER FOR 104 WK (STUDY DURATION: 104 WK), Dose: 0, 100, 200, 400 PPM IN DRINKING WATER FOR 104 WK (STUDY DURATION: 104 WK), Tumor Site: Type of Lesion: TESTIS: INTERSTITIAL CELL ADENOMA) “equivocal”.
With `O=[As](O)(O)O`, the carcinogen call is, setting by setting: (Species: MOUSE, Strain/Sex: SWISS/FEMALE, Route: INTRAVENOUS, Dose: 0, 0.5 MG/KG/WK FOR 20 WK (STUDY DURATION: 96 WK)) “inactive; negative”; (Species: MOUSE, Strain/Sex: SWISS/MALE, Route: INTRAVENOUS, Dose: 0, 0.5 MG/KG/WK FOR 20 WK (STUDY DURATION: 96 WK)) “inactive; negative”.
For the compound `CCOCCc1c(-c2ccccc2)nc(N)n2ncnc12`, the carcinogen call is, setting by setting: (Species: RAT, Strain/Sex: STRAIN-CD/FEMALE, Route: ORAL, Dose: 0, 50, 150, 450 MG/KG/D IN DIET FOR 97 WK (STUDY DURATION: 105 WK), Dose: 0, 50, 150, 450 MG/KG/D IN DIET FOR 97 WK (STUDY DURATION: 105 WK), Tumor Site: Type of Lesion: LIVER: ADENOMA OR CARCINOMA, MAMMARY GLAND: ADENOMA OR CARCINOMA, THYROID GLAND: ADENOMA, Tumor Site: Type of Lesion: LIVER: ADENOMA OR CARCINOMA, MAMMARY GLAND: ADENOMA OR CARCINOMA, THYROID GLAND: ADENOMA) “active; positive”; (Species: RAT, Strain/Sex: STRAIN-CD/MALE, Route: ORAL, Dose: 0, 50, 150, 450 MG/KG/D IN DIET FOR 97 WK (STUDY DURATION: 105 WK), Dose: 0, 50, 150, 450 MG/KG/D IN DIET FOR 97 WK (STUDY DURATION: 105 WK), Tumor Site: Type of Lesion: LIVER: ADENOMA OR CARCINOMA, THYROID GLAND: ADENOMA OR CARCINOMA) “active; positive”.
As to `NC(=S)NNC(N)=S`, the carcinogen call reads like this: (Species: MOUSE, Strain/Sex: B6C3F1/FEMALE, Route: ORAL, Dose: 0, 1.0, 2.0% OF DIET FOR 78 WK (STUDY DURATION: 94 WK), Dose: 0, 1.0, 2.0% OF DIET FOR 78 WK (STUDY DURATION: 94 WK), Tumor Site: Type of Lesion: LIVER: HEPATOCELLULAR CARCINOMA) “equivocal”; (Species: MOUSE, Strain/Sex: B6C3F1/MALE, Route: ORAL, Dose: 0, 1.0, 2.0% OF DIET FOR 78 WK (STUDY DURATION: 94 WK), Dose: 0, 1.0, 2.0% OF DIET FOR 78 WK (STUDY DURATION: 94 WK)) “inactive; negative”; (Species: RAT, Strain/Sex: F344/FEMALE, Route: ORAL, Dose: 0, 0.6, 1.2% OF DIET FOR 78 WK (STUDY DURATION: 109 WK), Dose: 0, 0.6, 1.2% OF DIET FOR 78 WK (STUDY DURATION: 109 WK)) “inactive; negative”; (Species: RAT, Strain/Sex: F344/MALE, Route: ORAL, Dose: 0, 0.6, 1.2% OF DIET OR 78 WK (STUDY DURATION: 109 WK), Dose: 0, 0.6, 1.2% OF DIET OR 78 WK (STUDY DURATION: 109 WK)) “inactive; negative”.
As for `CC(=O)O[C@]1(C(C)=O)CC[C@H]2[C@@H]3C=C(C)C4=CC(=O)CC[C@]4(C)[C@H]3CC[C@@]21C`, the carcinogen call (Species: DOG, Route: ORAL, Tumor Site: Type of Lesion: MAMMARY GLAND) was “active; positive”.
Regarding `CC(=O)N(O)c1ccc2ccc3cccc4ccc1c2c34`, the carcinogen call is, setting by setting: (Species: RAT, Strain/Sex: STRAIN-CD/FEMALE, Route: INTRAPERITONEAL, Dose: 0, 67 UMOL/KG BW IN DMSO 3/WK FOR 4 WK (STUDY DURATION: 61 WK)) “inactive; negative”; (Species: RAT, Strain/Sex: STRAIN-CD/FEMALE, Route: INTRAPERITONEAL, Dose: 0, 67 UMOL/KG/BW IN 25 UMOL/ML DMSO 3/WK FOR 4 WK (TOTAL DOSE: 0; 119 UMOL) ADMINISTERED TO WEANLING RATS (STUDY DURATIO, Dose: 0, 67 UMOL/KG/BW IN 25 UMOL/ML DMSO 3/WK FOR 4 WK (TOTAL DOSE: 0; 119 UMOL) ADMINISTERED TO WEANLING RATS (STUDY DURATIO) “inactive; negative”.
As to `C1CC2OC2CC1C1CO1` (stereo unspecified), the carcinogen call reads like this: (Species: MOUSE, Route: DERMAL, Tumor Site: Type of Lesion: INTEGUMENTARY SYSTEM (SKIN)) “active; positive”; (Species: MOUSE, Strain/Sex: B6C3F1/FEMALE, Route: DERMAL, Dose: 0, 2.5, 5, 10 MG/MOUSE IN ACETONE 5 D/WK FOR 103 WK, HIGH DOSE FEMALE MICE 85 WK (STUDY DURATION: 105 WK), Dose: 0, 2.5, 5, 10 MG/MOUSE IN ACETONE 5 D/WK FOR 103 WK, HIGH DOSE FEMALE MICE 85 WK (STUDY DURATION: 105 WK), Tumor Site: Type of Lesion: LUNG: ALVEOLAR/BRONCHIOLAR ADENOMA OR CARCINOMA, OVARY: GRANULOSA CELL TUMOR, GRANULOSA CELL TUMOR OR MALIGNANT GRANULOS) “active; positive”; (Species: MOUSE, Strain/Sex: B6C3F1/MALE, Route: DERMAL, Dose: 0, 2.5, 5, 10 MG/MOUSE IN ACETONE 5 D/WK FOR 103 WK (STUDY DURATION: 105 WK), Dose: 0, 2.5, 5, 10 MG/MOUSE IN ACETONE 5 D/WK FOR 103 WK (STUDY DURATION: 105 WK), Tumor Site: Type of Lesion: SKIN (APPLICATION SITE): BASOSQUAMOUS TUMOR MALIGNANT, BASOSQUAMOUS TUMOR MALIGNANT OR BASAL CELL CARCINOMA, SQUAMOUS CE) “active; positive”; (Species: RAT, Strain/Sex: F344/FEMALE, Route: DERMAL, Dose: 0, 15, 30 MG/RAT IN ACETONE 5 D/WK FOR 105 WK (STUDY DURATION: 106 WK), Dose: 0, 15, 30 MG/RAT IN ACETONE 5 D/WK FOR 105 WK (STUDY DURATION: 106 WK), Tumor Site: Type of Lesion: SKIN (APPLICATION SITE): BASAL CELL CARCINOMA, SEBACEOUS GLAND ADENOMA OR BASAL CELL CARCINOMA, SQUAMOUS CELL CARCINOMA) “active; positive”; (Species: RAT, Strain/Sex: F344/MALE, Route: DERMAL, Dose: 0, 15, 30 MG/RAT IN ACETONE 5 D/WK FOR 105 WK (STUDY DURATION: 106 WK), Dose: 0, 15, 30 MG/RAT IN ACETONE 5 D/WK FOR 105 WK (STUDY DURATION: 106 WK), Tumor Site: Type of Lesion: SKIN (APPLICATION SITE): BASAL CELL ADENOMA, BASAL CELL CARCINOMA, BASAL CELL ADENOMA OR SEBACEOUS GLAND ADENOMA, SQUAMO) “active; positive”.
As for `CN(CC(=O)O)N=O`, the carcinogen call is “active; positive” (Species: MOUSE, Route: INTRAPERITONEAL, Tumor Site: Type of Lesion: LIVER); “active; positive” (Species: MOUSE, Route: ORAL, Tumor Site: Type of Lesion: NASAL CAVITY); “active; positive” (Species: RAT, Route: ORAL, Tumor Site: Type of Lesion: ESOPHAGUS).
